Measurements reported in patent US10676430B2, “Non-alpha substituted peroxy acids and uses thereof” (Stepan Company, priority 2016, dated 2020).

Columns and labels:
[1] = Peracid stability by standard titration method; format: physicochemical
Text: […] The H2O2 used is commercially available from Arkema under the tradename Perxoal 50EG and includes a small amount of stabilizer. The reaction proceeded until equilibrium was reached, in accordance with the reaction scheme recited above. The starting carboxylic acids were acetic acid, 3-hydroxy propanoic acid, 3-chloro-propanoic acid, 2-hydroxy-acetic acid (glycolic acid), 2-hydroxy-propanoic acid (lactic acid) and 2-oxo-propanoic acid. The 3-hydroxy propanoic acid and 3-chloro-propanoic acid generated non alpha-substituted peracids that are examples of the present technology. The other starting carboxylic acids generated peracids that are not within Formula 1 or Formula 2 and are comparative peracid examples.
Each of the resulting peracids were evaluated for odor. In addition, the resulting peracids were evaluated for stability using a standard titration method known to those skilled in the art.

[2] = test system: Staphylococcus aureus (Sa, ATCC 6538); assay: Method A: AOAC Use Dilution test for Disinfectants (Method 955.15); format: cell-based; details: 1 minute
Protocol: (§1) In this Example, 3-HPPA was evaluated for biocidal efficacy against Sa, Pa, and Ec using three different test methods. PAA was also evaluated for biocidal efficacy for comparison. The test methods were performed using 400 ppm of hard water as diluent, in the presence of 5% organic matter.
(§2) Method A: AOAC Use Dilution test for Disinfectants (Official Methods of Analysis. Methods 955.15—Staphylococcus aureus. Method 964.02—Pseudomonas aeruginosa. Posted September 2013). Killing efficacy is a qualitative result, reported as number of tubes showing microbial growth and total number carriers tested.

[3] = test system: Pseudomonas aeruginosa (Pa, ATCC 15442); assay: Method A+: modified quantitative AOAC Use Dilution test; format: cell-based; details: 750 ppm, 1 minute, 400 ppm hard water, 5% organic matter
Protocol: as §1
(§3) Method A^+: modified quantitative AOAC Use Dilution test for Disinfectants (Official Methods of Analysis. Methods 955.15—Staphylococcus aureus. Method 964.02—Pseudomonas aeruginosa. Posted September 2013). The number of surviving organisms on each carrier was quantitatively determined after the indicated contact time. No growth observed on the solid recovery medium means no survivors present on the carriers after exposure to the antimicrobial composition. A kill rate of 99.9999% is equivalent to a 6 log kill.

[4] = test system: Staphylococcus aureus (Sa, ATCC 6538); assay: as above; format: cell-based; details: 750 ppm, 1 minute, 400 ppm hard water, 5% organic matter
Protocol: as §1, §3

[5] = test system: Pseudomonas aeruginosa (Pa, ATCC 15442); assay: Method A: AOAC Use Dilution test for Disinfectants (Method 964.02); format: cell-based; details: 1 minute
Protocol: as §1, §2

[6] = test system: Spores of Clostridium difficile (ATCC 43598); assay: Quantitative Disk Carrier Test Method (QCT-2), EPA MB-31-03, sporicidal efficacy; format: cell-based; details: water hardness 400 ppm
Protocol: Different formulations containing 3-HPPA at different concentrations were prepared and evaluated for sporicidal efficacy against Cd. The 3-HPPA formulations were also compared to the sporicidal efficacy of different formulations containing peracetic acid (PAA). The test procedure for evaluating sporicidal efficacy was in accordance with the EPA test method in place in 2015: Quantitative Disk Carrier Test Method (QCT-2) Modified for Testing Antimicrobial Products Against Spores of Clostridium difficile (ATCC 43598) on Inanimate, Hard, Non-porous Surfaces (MB-31-03). This method mandates the presence of a high level of organic soil.

[7] = reaction mixture 20.00% organic acid, 7.50% H2O2, 1.00% H2SO4, DI water
[8] = 750 ppm, 400 ppm hard water, 5% organic matter

## CC(=O)OO [PAA, peracetic acid]
[1]; 0% H2SO4 (no acid catalyst), 17.00-20.00% organic acid, 7.8-8.5% H2O2
  Peracid at day 13: 1.44%
[1]; 1.00% H2SO4, between day 6 and day 13
  Peracid loss/day: 0.131%
[1]; [7]
  Peracid at day 6: 2.290%
  Peracid at day 13: 2.270%
[2]; 750 ppm active
  Efficacy outcome, EPA UDT/MB-05-13 test method: efficacious
[2]; [8]
  Efficacy (Method A): tubes showing microbial growth / total carriers tested: 0/20
[3]
  Efficacy (Method A+), kill rate: >99.9999%
[4]
  Efficacy (Method A+), kill rate: >99.9999%
[5]; 750 ppm active
  Efficacy outcome, EPA UDT/MB-05-13 test method: efficacious
[5]; [8]
  Efficacy (Method A): tubes showing microbial growth / total carriers tested: 0/20
[6]; peracid active 1844 ppm, contact time 2 minute
  Log10 reduction: 4.76
[6]; peracid active 2500 ppm, contact time 4 minute
  Log10 reduction: 4.37
[6]; peracid active 2500 ppm, contact time 4 minute, listed as PAA alone
  Log10 reduction: <4.37
[6]; peracid active 5000 ppm, contact time 4 minute
  Log10 reduction: 6.39
